Measured values as given in ChEMBL document CHEMBL5360539, “RSK inhibitors as potential anticancer agents: Discovery, optimization, and challenges” (Eur J Med Chem, 2023).
Counter-ions that a name gives are not always drawn. One block for each compound: values may come before it.

Tests used:
[1] = Inhibition of recombinant N-terminal RSK (unknown origin) expressed in Sf21 cells; design: species or system Homo sapiens
[2] = biological target: T1, Ribosomal protein S6 kinase alpha-3 (Homo sapiens, UniProt P51812); assay: Inhibition of RSK2 (unknown origin)
T1 sequence (P51812 whole entry): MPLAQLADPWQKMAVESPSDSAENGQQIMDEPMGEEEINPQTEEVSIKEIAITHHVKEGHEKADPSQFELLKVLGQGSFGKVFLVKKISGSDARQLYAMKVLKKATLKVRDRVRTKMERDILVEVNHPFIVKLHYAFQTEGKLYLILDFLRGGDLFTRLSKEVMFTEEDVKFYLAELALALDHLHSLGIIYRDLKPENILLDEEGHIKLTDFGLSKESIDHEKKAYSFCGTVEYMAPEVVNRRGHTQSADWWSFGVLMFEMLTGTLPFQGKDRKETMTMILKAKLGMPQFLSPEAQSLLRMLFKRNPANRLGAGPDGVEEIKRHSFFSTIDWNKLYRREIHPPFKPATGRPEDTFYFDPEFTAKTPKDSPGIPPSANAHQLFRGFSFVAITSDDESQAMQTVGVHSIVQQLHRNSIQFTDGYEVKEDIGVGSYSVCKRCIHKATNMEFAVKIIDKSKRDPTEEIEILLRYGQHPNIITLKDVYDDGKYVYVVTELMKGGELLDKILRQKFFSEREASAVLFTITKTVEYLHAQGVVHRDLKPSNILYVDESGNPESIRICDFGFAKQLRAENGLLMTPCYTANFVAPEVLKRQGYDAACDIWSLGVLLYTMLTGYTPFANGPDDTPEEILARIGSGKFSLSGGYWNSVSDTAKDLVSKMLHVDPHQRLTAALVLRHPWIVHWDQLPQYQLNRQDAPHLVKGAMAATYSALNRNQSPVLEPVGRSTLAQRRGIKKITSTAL

[3] = biological target: Ribosomal protein S6 kinase alpha-1 (Homo sapiens, UniProt Q15418); assay: Inhibition of RSK1 (unknown origin)
Ribosomal protein S6 kinase alpha-1, sequence (Q15418 whole entry): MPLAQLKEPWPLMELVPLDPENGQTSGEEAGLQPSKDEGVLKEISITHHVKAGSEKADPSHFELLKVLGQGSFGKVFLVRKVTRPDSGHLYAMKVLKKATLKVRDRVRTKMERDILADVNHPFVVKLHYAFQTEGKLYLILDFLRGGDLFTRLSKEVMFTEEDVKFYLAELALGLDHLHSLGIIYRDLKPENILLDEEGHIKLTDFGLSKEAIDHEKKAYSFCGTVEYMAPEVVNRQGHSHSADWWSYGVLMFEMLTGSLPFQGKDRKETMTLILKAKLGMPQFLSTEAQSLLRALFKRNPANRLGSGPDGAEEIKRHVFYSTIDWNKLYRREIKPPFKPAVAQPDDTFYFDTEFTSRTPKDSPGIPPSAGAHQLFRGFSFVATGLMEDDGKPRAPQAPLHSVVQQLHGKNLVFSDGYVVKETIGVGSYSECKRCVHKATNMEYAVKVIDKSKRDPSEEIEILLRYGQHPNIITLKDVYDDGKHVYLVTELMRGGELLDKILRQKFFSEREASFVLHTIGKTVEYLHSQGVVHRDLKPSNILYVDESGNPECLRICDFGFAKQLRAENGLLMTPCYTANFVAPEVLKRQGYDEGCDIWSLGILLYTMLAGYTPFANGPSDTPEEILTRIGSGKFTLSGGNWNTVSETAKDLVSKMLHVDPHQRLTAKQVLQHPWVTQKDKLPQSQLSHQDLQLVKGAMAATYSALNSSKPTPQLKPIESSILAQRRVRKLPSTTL

[4] = biological target: Ribosomal protein S6 kinase alpha-6 (Homo sapiens, UniProt Q9UK32); assay: Inhibition of RSK4 (unknown origin)
Ribosomal protein S6 kinase alpha-6, sequence (Q9UK32 whole entry): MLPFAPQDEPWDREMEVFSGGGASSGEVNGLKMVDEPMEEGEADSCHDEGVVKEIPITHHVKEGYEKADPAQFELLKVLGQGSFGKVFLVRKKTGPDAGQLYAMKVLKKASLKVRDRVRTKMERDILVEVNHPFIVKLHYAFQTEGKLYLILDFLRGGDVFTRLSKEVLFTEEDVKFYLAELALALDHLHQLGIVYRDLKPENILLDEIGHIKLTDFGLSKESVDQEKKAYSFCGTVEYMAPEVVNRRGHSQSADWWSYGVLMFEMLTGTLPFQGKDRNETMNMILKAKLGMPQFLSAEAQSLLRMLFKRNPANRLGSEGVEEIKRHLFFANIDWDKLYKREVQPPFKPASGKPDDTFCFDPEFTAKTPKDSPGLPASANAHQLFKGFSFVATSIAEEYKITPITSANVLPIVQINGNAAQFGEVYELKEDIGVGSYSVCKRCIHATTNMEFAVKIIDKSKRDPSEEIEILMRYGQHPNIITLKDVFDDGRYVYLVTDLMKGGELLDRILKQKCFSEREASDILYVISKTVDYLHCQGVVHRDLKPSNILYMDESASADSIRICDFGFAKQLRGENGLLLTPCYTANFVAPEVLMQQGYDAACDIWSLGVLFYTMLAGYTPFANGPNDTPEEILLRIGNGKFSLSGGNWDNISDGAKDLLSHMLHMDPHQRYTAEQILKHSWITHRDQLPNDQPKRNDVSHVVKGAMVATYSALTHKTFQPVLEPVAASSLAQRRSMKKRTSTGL

[5] = biological target: T1, Ribosomal protein S6 kinase alpha-3; assay: Inhibition of recombinant His-tagged RSK2 (unknown origin) expressed in Sf9 cells
[6] = biological target: T1, Ribosomal protein S6 kinase alpha-3; assay: Inhibition of human recombinant RSK2
[7] = biological target: Ribosomal protein S6 kinase alpha-2 (Homo sapiens, UniProt Q15349); assay: Inhibition of RSK3 (unknown origin)
Ribosomal protein S6 kinase alpha-2, sequence (Q15349 whole entry): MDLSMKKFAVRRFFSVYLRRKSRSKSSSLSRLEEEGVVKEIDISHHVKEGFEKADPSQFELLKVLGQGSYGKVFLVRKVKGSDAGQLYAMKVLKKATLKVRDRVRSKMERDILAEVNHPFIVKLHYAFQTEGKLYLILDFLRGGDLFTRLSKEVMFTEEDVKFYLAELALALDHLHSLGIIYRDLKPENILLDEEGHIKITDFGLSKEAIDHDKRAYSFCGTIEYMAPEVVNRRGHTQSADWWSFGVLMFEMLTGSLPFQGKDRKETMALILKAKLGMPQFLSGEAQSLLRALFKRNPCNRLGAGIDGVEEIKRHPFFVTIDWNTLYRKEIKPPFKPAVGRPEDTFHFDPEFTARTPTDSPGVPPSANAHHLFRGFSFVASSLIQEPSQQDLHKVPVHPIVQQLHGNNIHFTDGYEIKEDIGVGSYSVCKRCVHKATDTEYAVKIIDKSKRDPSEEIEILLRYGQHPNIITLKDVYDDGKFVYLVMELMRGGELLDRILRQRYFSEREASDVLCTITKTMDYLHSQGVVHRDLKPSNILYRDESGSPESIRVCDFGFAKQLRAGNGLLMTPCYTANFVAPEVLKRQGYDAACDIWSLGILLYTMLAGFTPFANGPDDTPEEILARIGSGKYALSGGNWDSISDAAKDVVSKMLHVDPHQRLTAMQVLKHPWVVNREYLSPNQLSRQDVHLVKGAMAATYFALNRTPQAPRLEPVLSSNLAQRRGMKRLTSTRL

[8] = biological target: T1, Ribosomal protein S6 kinase alpha-3; assay: Inhibition of wild type RSK2 (unknown origin)
[9] = biological target: T1, Ribosomal protein S6 kinase alpha-3; assay: Inhibition of RSK2 expressed in human MCF7 cells incubated for 1 hrs by; assay type: cell-based

Structure (SMILES): CC(C)CCN1c2nc(Nc3cc(F)c(O)c(F)c3)ncc2N(C)C(=O)C1C (stereo unspecified)
IC50 [1]: 10 nM

Structure (SMILES): CC(C)=CCC1=C(O)C(=O)c2ccccc2C1=O [LAPACHOL]
IC50 [2]: 2000 nM

Structure (SMILES): Cn1cc(C2=C(c3ccc(Cl)cc3Cl)C(=O)NC2=O)c2ccccc21 [SB-216763]
IC50 [3]: 100 nM

Structure (SMILES): O=C1Nc2ccccc2/C1=C1/Nc2ccccc2/C1=N\O
IC50 [3]: 100 nM

Structure (SMILES): COC(=O)/C=C/C(=O)OC [DIMETHYL FUMARATE]
IC50 [6]: 225000 nM

Structure (SMILES): O=C1c2ccccc2-c2c(NCCc3ccccc3)c(=O)[nH]c3cccc1c23
IC50 [2]: 2400 nM
IC50 [7]: 1200 nM
IC50 [3]: 1500 nM

Structure (SMILES): Cc1ccc(-c2c(C(=O)CCl)n(CCCO)c3ncnc(N)c23)cc1
IC50 [8]: 15 nM

Structure (SMILES): Cn1cc(C2=C(c3cn(CCCSC(=N)N)c4ccccc34)C(=O)NC2=O)c2ccccc21 [BISINDOLYLMALEIMIDE IX]
IC50 [3]: 200 nM

Structure (SMILES): CN(C)CCCn1cc(C2=C(c3c[nH]c4ccccc34)C(=O)NC2=O)c2ccccc21 [GF-109203]
IC50 [3]: 610 nM

The remaining lines, values ahead:

IC50 [4]: 6200 nM
Structure (SMILES): CCCNC(=O)O[C@@H]1[C@@H](OC(C)=O)[C@@H](O)[C@H](Oc2c(-c3ccc(O)cc3)oc3cc(O)cc(O)c3c2=O)O[C@H]1CCC

IC50 [5]: 870 nM
Structure (SMILES): CCCNC(=O)O[C@H]1[C@H](CCC)C[C@@H](Oc2c(-c3ccc(O)cc3)oc3cc(O)cc(O)c3c2=O)[C@H](O)[C@@H]1OC(=O)NCCC

IC50 [3]: 89 nM
Structure (SMILES): CC(=O)O[C@@H]1[C@@H](OC(C)=O)[C@@H](O)[C@H](Oc2c(-c3ccc(O)cc3)oc3cc(O)cc(O)c3c2=O)O[C@H]1C

IC50 [5]: 870 nM
Structure (SMILES): CCC[C@@H]1C[C@@H](Oc2c(-c3ccc(O)cc3)oc3cc(O)cc(O)c3c2=O)[C@H](O)[C@H](OC(C)=O)[C@H]1OC(C)=O

IC50 [9]: 4770 nM
Structure (SMILES): O=C1C[C@@H](c2ccc(O)c(O)c2)Oc2cc(O)cc(O)c21 [ERIODICTYOL]
